For 16 molecules, TGI and GI50 results are on record in PubChem BioAssay (NCI).

Some test systems named below: A549 NSCLC; EKVX NSCLC; MDA-MB-231 breast; SF-268 CNS; SN12C renal; OVCAR-8 ovarian; SNB-75 CNS; SK-OV-3 ovarian.
What all share (assay): NCI anticancer screen, dose series, 48 h

SMILES strings stand for the structures. Where “and” joins values, the source holds several entries; their conditions need not be identical. Identical values can stand only once.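 Dose response: 5 concentrations. Exposure: 48 h. Format: 96-well plates. Endpoint: linear interpolation; highest concentration if not reached. Here, GI50 denotes the concentration required for 50% inhibition of growth. TGI marks complete inhibition of growth.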

For `CCc1c2c(nc3cc4c(cc13)OCO4)-c1cc3c(c(=O)n1C2)COC(=O)[C@]3(O)CC`, the TGI in the test with A549 NSCLC is 2.08 µM; in the test on EKVX NSCLC, more than 100 µM; with MDA-MB-231 breast, more than 100 µM; in the test on SF-268 CNS, 0.622 µM; with SN12C renal it was more than 100 µM. Also, the GI50 is 4.31 µM and 1.8 µM in the test with EKVX NSCLC; 0.0726 µM and 0.167 µM in the test on MDA-MB-231 breast; 0.00907 µM in the test on SF-268 CNS.
On to `CCC(C)C1NC(=O)c2nc(oc2-c2ccccc2)-c2csc(n2)-c2csc(n2)-c2nc(oc2C)-c2coc(n2)CNC(=O)C(C(C)CC)NC1=O` (stereo unspecified), for which the GI50 in the test on MDA-MB-231 breast is 0.035 µM; in the test on OVCAR-8 ovarian it was 0.0216 µM; in the test on SF-268 CNS it was 0.0249 µM; in the test on SNB-75 CNS it was 0.0354 µM. For the same molecule, the TGI turned out to be 0.135 µM in the test on MDA-MB-231 breast, 0.182 µM in the test on OVCAR-8 ovarian, 0.154 µM in the test on SF-268 CNS and 0.175 µM in the test on SNB-75 CNS.
Turning to `C[C@@H]1CC[C@H]2C(COCC3=C(C(F)(F)F)O[C@@H]4O[C@@]5(C)CC[C@H]6[C@H](C)CC[C@@H]3[C@@]46OO5)=C(C(F)(F)F)O[C@@H]3O[C@@]4(C)CC[C@@H]1[C@]32OO4`, the GI50 was 0.0126 µM in the test with A549 NSCLC; 0.0333 µM with EKVX NSCLC; 0.037 µM in the test on MDA-MB-231 breast; less than 0.0178 µM in the test with OVCAR-8 ovarian; more than 100 µM in the test with SK-OV-3 ovarian; 0.0439 µM in the test with SN12C renal. Moreover, the TGI in the test on A549 NSCLC, with EKVX NSCLC, in the test on MDA-MB-231 breast, in the test on OVCAR-8 ovarian, in the test with SK-OV-3 ovarian and in the test with SN12C renal was more than 100 µM in each case.
As for `Oc1ccccc1/C=N/Nc1ccc2ccccc2n1`, the GI50 in the test on A549 NSCLC is 5.33 µM; in the test on MDA-MB-231 breast, 3.35 µM; with OVCAR-8 ovarian, 4.23 µM; in the test on SF-268 CNS it was 3.09 µM; in the test with SK-OV-3 ovarian, 9.69 µM; in the test with SN12C renal, 4.92 µM. Moreover, the GI50 in the test on SNB-75 CNS is 2.01 µM. Besides, the TGI is more than 100 µM with A549 NSCLC; more than 100 µM with MDA-MB-231 breast; 59.1 µM in the test on OVCAR-8 ovarian; 69.3 µM in the test on SF-268 CNS; more than 100 µM in the test with SK-OV-3 ovarian; more than 100 µM with SN12C renal. In addition, the TGI in the test with SNB-75 CNS stood at 20.4 µM.
`O=C(CCN1CCN(c2cnc3ccccc3n2)CC1)c1csc2ccccc12`: the GI50 with EKVX NSCLC is 36 µM; in the test with MDA-MB-231 breast, 26 µM; in the test on OVCAR-8 ovarian it was more than 100 µM; with SF-268 CNS, more than 100 µM; in the test on SK-OV-3 ovarian, more than 100 µM; in the test with SN12C renal, 79.6 µM. Further, the GI50 with SNB-75 CNS is 24.2 µM. The TGI was more than 100 µM in the test with EKVX NSCLC; 63 µM in the test with MDA-MB-231 breast; more than 100 µM in the test on OVCAR-8 ovarian; more than 100 µM with SF-268 CNS; more than 100 µM in the test with SK-OV-3 ovarian; more than 100 µM with SN12C renal. In the test on SNB-75 CNS, this molecule showed a TGI of 91.6 µM.
Consider `O=C1/C(=C/c2ccc(F)cc2)CCOc2ccc([N+](=O)[O-])cc21`, for which the GI50 is 8.47 µM with A549 NSCLC; 16.5 µM with EKVX NSCLC; 13.3 µM in the test with MDA-MB-231 breast; 2.68 µM in the test with OVCAR-8 ovarian; 22.3 µM in the test on SF-268 CNS; 17 µM with SK-OV-3 ovarian. For the same molecule, the GI50 in the test on SN12C renal is 6.97 µM. The TGI with A549 NSCLC stood at 23.7 µM; in the test on EKVX NSCLC, 30.5 µM; with MDA-MB-231 breast, 31.9 µM; in the test with OVCAR-8 ovarian it was 9.24 µM; with SF-268 CNS, 53.2 µM; in the test on SK-OV-3 ovarian it was 32.6 µM. Moreover, the TGI in the test on SN12C renal was found to be 21 µM.
For the molecule `COc1c(C2CC(=O)Nc3c2cnn3Cc2ccco2)cc2c(c1OC)OCO2` (stereo unspecified), the GI50 in the test on A549 NSCLC was 0.61 µM; in the test on MDA-MB-231 breast it was 1.67 µM; in the test on OVCAR-8 ovarian, 0.924 µM; in the test on SF-268 CNS, 1.58 µM; in the test on SK-OV-3 ovarian, 0.858 µM; in the test on SN12C renal, 1.94 µM. Further, in the test on SNB-75 CNS, the GI50 was 0.295 µM. Also, the TGI was more than 100 µM in the test with A549 NSCLC; more than 26.4 µM in the test with MDA-MB-231 breast; more than 100 µM with OVCAR-8 ovarian; more than 100 µM with SF-268 CNS; more than 24.9 µM with SK-OV-3 ovarian; more than 100 µM in the test on SN12C renal. The same molecule came in with a TGI in the test with SNB-75 CNS of more than 100 µM.
Take `CCCCCCCCCCCCCC(=S)NCCCC[C@H](NC(=O)OCc1ccccc1)C(=O)Nc1ccccc1`: the GI50 in the test on A549 NSCLC is 6.31 µM; with MDA-MB-231 breast, 5.53 µM; in the test on OVCAR-8 ovarian, 4.35 µM; in the test on SF-268 CNS it was 5.84 µM; with SK-OV-3 ovarian, 21.7 µM; in the test on SN12C renal, 3.81 µM. The GI50 in the test with SNB-75 CNS was 3.85 µM. In addition, the TGI in the test on A549 NSCLC, with MDA-MB-231 breast, with OVCAR-8 ovarian, in the test on SF-268 CNS, with SK-OV-3 ovarian and in the test with SN12C renal was more than 100 µM throughout. Further, the TGI in the test with SNB-75 CNS was more than 100 µM.
Take `CC(=O)c1ccc(Nc2cc(-c3ccccc3)nc3c(O)cccc23)cc1`: the GI50 was 30.6 µM with A549 NSCLC; 28.7 µM in the test on EKVX NSCLC; 24 µM with MDA-MB-231 breast; 19 µM with OVCAR-8 ovarian; 57.1 µM in the test with SK-OV-3 ovarian; 24.7 µM in the test with SN12C renal. In addition, the GI50 in the test with SNB-75 CNS was 17.9 µM. The TGI was more than 100 µM with A549 NSCLC; more than 100 µM in the test with EKVX NSCLC; 55.7 µM in the test with MDA-MB-231 breast; more than 100 µM in the test with OVCAR-8 ovarian; more than 100 µM in the test on SK-OV-3 ovarian; 58.2 µM with SN12C renal. Further, the TGI in the test on SNB-75 CNS is 50.5 µM.
For `O=C(Nc1nc2ccccc2s1)OCC(F)(F)F`, the GI50 in the test with A549 NSCLC, in the test on MDA-MB-231 breast, in the test with OVCAR-8 ovarian, in the test on SF-268 CNS, in the test on SK-OV-3 ovarian and in the test on SN12C renal was more than 100 µM throughout. For the same molecule, in the test with SNB-75 CNS, the GI50 was more than 100 µM. For the same molecule, the TGI with A549 NSCLC, in the test on MDA-MB-231 breast, in the test with OVCAR-8 ovarian, in the test with SF-268 CNS, with SK-OV-3 ovarian and in the test on SN12C renal was more than 100 µM in each case. Further, the TGI with SNB-75 CNS is more than 100 µM.
On to `COC(=O)C1OC(O[C@H]2CCC3(C)C(CCC4(C)C3CC=C3C5CC(C)(C)CCC5(C(=O)O)CC[C@]34C)C2(C)C)C(O)C(OC2OC(CO)C(O)C(O)C2O)C1O` (stereo partly specified), for which the GI50 is 7.22 µM with A549 NSCLC; 6.59 µM in the test on EKVX NSCLC; 7.28 µM in the test with MDA-MB-231 breast; 9.96 µM in the test on OVCAR-8 ovarian; 7.56 µM with SF-268 CNS; 6.34 µM in the test with SN12C renal. Further, the TGI is 19.2 µM in the test on A549 NSCLC; 12.9 µM in the test on EKVX NSCLC; 13.5 µM in the test on MDA-MB-231 breast; 27.6 µM in the test with OVCAR-8 ovarian; 17.1 µM in the test with SF-268 CNS; 11.4 µM with SN12C renal.
With `N#Cc1c(-c2cccs2)c2c(=S)[nH]c(=S)[nH]c2[nH]c1=S`, the GI50 is 28.9 µM in the test with A549 NSCLC; 20 µM in the test on EKVX NSCLC; 39 µM with MDA-MB-231 breast; 32.4 µM in the test with SF-268 CNS; 46 µM with SK-OV-3 ovarian; 43 µM with SN12C renal. In the test with SNB-75 CNS, the GI50 is more than 100 µM. The TGI is more than 100 µM in the test on A549 NSCLC; 60.8 µM in the test with EKVX NSCLC; more than 100 µM in the test with MDA-MB-231 breast; 67.2 µM in the test on SF-268 CNS; more than 100 µM in the test on SK-OV-3 ovarian; more than 100 µM in the test with SN12C renal. Also, the TGI in the test on SNB-75 CNS is more than 100 µM.
With `O=C(/C=C/c1ccc(Cl)cc1)c1ccc(Cl)cc1Cl`, the GI50 in the test with A549 NSCLC is 8.63 µM; in the test with EKVX NSCLC, 9.33 µM; in the test with MDA-MB-231 breast, 10.9 µM; in the test with OVCAR-8 ovarian, 8.65 µM; in the test on SF-268 CNS it was 10.1 µM; with SK-OV-3 ovarian, 6.84 µM. For the same molecule, the GI50 in the test on SN12C renal is 9.96 µM. Also, the TGI turned out to be 17.5 µM in the test with A549 NSCLC; 19.7 µM in the test on EKVX NSCLC; 22.1 µM in the test on MDA-MB-231 breast; 21.5 µM with OVCAR-8 ovarian; 21.8 µM in the test on SF-268 CNS; 14.5 µM with SK-OV-3 ovarian. The TGI in the test with SN12C renal came to 20.9 µM.
Take `CN=C(N)N/N=C(\c1ccccc1)c1ccc(Br)cc1`: the GI50 is 0.394 µM in the test on A549 NSCLC; 0.358 µM in the test on MDA-MB-231 breast; 0.369 µM in the test with OVCAR-8 ovarian; 0.685 µM with SF-268 CNS; 0.462 µM in the test on SK-OV-3 ovarian; 0.451 µM in the test on SN12C renal. In addition, the GI50 in the test with SNB-75 CNS is 0.387 µM. Also, the TGI with A549 NSCLC turned out to be 10.1 µM; in the test with MDA-MB-231 breast, 2.09 µM; with OVCAR-8 ovarian, 5.16 µM; in the test with SF-268 CNS it was 11.8 µM; in the test with SK-OV-3 ovarian, 12.3 µM; in the test on SN12C renal, 6.27 µM. Moreover, the TGI in the test on SNB-75 CNS turned out to be 6.51 µM.
Take `O=C(C#Cc1c[nH]c(=O)[nH]c1=O)c1ccccc1Cl`: the TGI in the test with A549 NSCLC was more than 100 µM; in the test on EKVX NSCLC, 36.5 µM; in the test with OVCAR-8 ovarian, 29.3 µM; in the test with SF-268 CNS, 41.4 µM; in the test on SK-OV-3 ovarian, more than 100 µM; with SN12C renal, 27.5 µM. Moreover, the TGI in the test with SNB-75 CNS is 39.6 µM.
`CNC(=O)c1ccccc1CC1(O)c2ccccc2Oc2ccccc21`: the GI50 with A549 NSCLC is 16.5 µM; with MDA-MB-231 breast, 15 µM; in the test with OVCAR-8 ovarian, 29.1 µM; in the test on SF-268 CNS it was 24.2 µM; in the test on SK-OV-3 ovarian, 24 µM; in the test with SN12C renal it was 26 µM. Besides, in the test on SNB-75 CNS, the GI50 is 12.4 µM. For the same molecule, the TGI is more than 100 µM in the test on A549 NSCLC; 83.3 µM in the test on MDA-MB-231 breast; more than 100 µM in the test on OVCAR-8 ovarian; 85.9 µM with SF-268 CNS; 87.3 µM with SK-OV-3 ovarian; more than 100 µM with SN12C renal. The molecule further returned a TGI in the test with SNB-75 CNS of 39 µM.
